Earlier results on one molecule are cited in patent US9125916B2, “Methods of treating hypertrophic cardiomyopathy” (Gilead Sciences, Inc., priority 2013, dated 2015).

The subject of the series is human cardiac tissue derived from patients with symptomatic HCM. The settings on record: Circulation 2013, 127 (5):575-584.

`COc1ccccc1OCC(O)CN1CCN(CC(=O)Nc2c(C)cccc2C)CC1` (stereo not shown) [ranolazine]: the “effect of inhibition of late INa on electrical and mechanical abnormalities characteristic of HCM” value is “reverse multiple electrical and mechanical abnormalities characteristic of the disease”.
